PMC5855801, “Benzothiophenone Derivatives Targeting Mutant Forms of Estrogen Receptor-α in Hormone-Resistant Breast Cancers” (International Journal of Molecular Sciences, 2018)

Legend:
ERα LBD = molecular target: T1, ERα LBD (Homo sapiens, UniProt P03372); experiment: Biolayer interferometry (BLI) direct binding assay; conditions: biotinylated ERα LBD on streptavidin sensor, 3–100 μM
T1 construct: ERα LBD (amino acids 302–552) was cloned into the pAN4 AviTag™ Vector; made in house
T1 sequence (P03372 302-552): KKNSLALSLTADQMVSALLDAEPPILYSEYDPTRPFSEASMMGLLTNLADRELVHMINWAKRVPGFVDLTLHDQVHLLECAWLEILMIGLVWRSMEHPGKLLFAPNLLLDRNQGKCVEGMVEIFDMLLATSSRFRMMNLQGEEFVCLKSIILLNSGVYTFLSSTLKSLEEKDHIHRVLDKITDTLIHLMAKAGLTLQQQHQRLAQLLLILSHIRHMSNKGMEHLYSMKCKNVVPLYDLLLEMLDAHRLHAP
Protocol: The direct binding of small molecules to the ERα-LBD was quantified by BLI using an Octet RED apparatus (Pall ForteBio, Menlo Park, CA, USA). ERα LBD (amino acids 302–552) was cloned into the pAN4 AviTag™ Vector, (Avidity, Aurora, CO, USA). Biotinylated ERα-LBD was purified as described previously. Biotinylated protein (bERα LBD at 0.05 mg/mL) was bound to the super streptavidin sensors (Pall ForteBio) overnight at 4 °C in assay buffer (20 mM Tris, pH 7.5, 500 mM NaCl, 0.2 mM tris(2-carboxyethyl)phosphine TCEP, 0.02 mM E2, 5% glycerol and 5% dimethyl sulfoxide (DMSO). The compounds were dissolved in the assay buffer in a two-fold dilution series ranging from 3.1–100 μM. In all experiments, a known AF2-interacting peptide, PGC-1α (Elim Biopharmaceuticals, Hayward, CA, USA) was used as a control to confirm the functionality of the bERα LBD.

[1] = tested on: ERα-dependent genes pS2, PR, Cyclin D1 and CDC2; experiment: qRT-PCR of ERα-dependent genes in MCF7 cells; assay type: cell-based, human; conditions: MCF7, 24 h, 1 nM E2
Protocol: (§1) mRNA levels were analyzed after treatment of MCF7 and TamR3 cells for 24 h with the test compounds as described previously. The fold change in expression of the genes was calculated using the 2^−ΔΔCt method with GAPDH as the internal control.

[2] = tested on: ERα-dependent genes pS2, PR, Cyclin D1 and CDC2; experiment: qRT-PCR of ERα-dependent genes in TamR3 cells; assay type: cell-based, human; conditions: TamR3, 24 h, 1 nM E2
Protocol: as §1

[3] = tested on: pS2, PR, Cyclin D1 and CDC2 proteins; experiment: Western blotting in TamR3 cells; assay type: cell-based, human; conditions: TamR3, 24 h, effect at higher doses
Protocol: Serum-starved MCF7 and TamR3 cells were seeded onto a six-well plate at a density of 6 × 10^5 cells/well and treated the following day with VPC-16606 in the presence of 1 nM E2. One micromolar OHT was used as the positive control. After 24 h, cells were lysed in 1× radioimmunoprecipitation assay (RIPA) buffer. Twenty five micrograms of protein were loaded into SDS-PAGE gels and transferred to PVDF membranes. Membranes were incubated with pS2, PR Cyclin D1 and CDC2 antibodies or control α-actin antibody. Bound antibodies were detected using HRP-conjugated secondary antibodies. Chemiluminescence was detected with an Amersham ECL detection kit (GE Healthcare Life Sciences, Chicago, IL, USA), and bands were visualised using the G:BOX imager (Syngene, Cambridge, UK).

CC(=O)N(/N=C1\Sc2c(C)cccc2C1=O)c1ccccc1Cl [VPC-16606] was tested, and the “Direct binding to ERα LBD (BLI)” value (ERα LBD) was “direct reversible interaction”, the “mRNA levels of ERα-dependent genes pS2, PR, Cyclin D1 and CDC2” value [1] was “significantly downregulates” and the “mRNA levels of ERα-dependent genes pS2, PR, Cyclin D1 and CDC2” value [2] was “significantly downregulates”. For the same compound, the “Expression of pS2, PR, Cyclin D1 and CDC2 proteins (Western blot)” value [3] was “decreased expression”.
